Measurements: patent publication US20260023070A1, “OPTOGENETIC ALPHA-SYNUCLEIN AGGREGATION SYSTEM-BASED COMPOUND SCREENING PLATFORM IN PD-hiPSC-mDA NEURONS” (The Johns Hopkins University, priority 2022, published 2026)

Columns and labels:
[1] = tested on: PI3K-PDK1/AKT/mTOR signaling pathway; assay: PI3K/PDK1 downstream target phosphorylation in α-syn PFF-treated PD hiPSC-derived dopaminergic neurons; type: cell-based, human
Text: (§1) Since PI3K-PDK1/AKT/mTOR signaling pathway plays a critical role in regulation of autophagy, it was investigated the effects of BAG 956 treatments on PFF models. […] Taken together, BAG 956 may act as an autophagy-enhancing drug through inhibition of the PI3K-PDK1/AKT/mTOR signaling pathway (FIG. 18I).

[2] = tested on: tau PFF treated mouse cortical neurons; assay: tau PFF treated mouse cortical neurons, p-Tau western blot; type: cell-based
Description: It was tested whether the BAG956 compound can be beneficial in other proteinopathy models. The BAG and CDC compounds were used on the tau PFF treated mouse […] neurons (FIGS. 15A-15D) and measured expression levels with three different phosphorylated-Tau (p-Tau) antibodies.

α-syn PFF injected mice = assay: In vivo intrastriatal α-syn PFF mouse model, oral BAG 956 (behaviour, histology, biochemistry)
Description: To test the neuroprotective potential of BAG 956, in vivo α-syn PFF mouse model was used for a short-term period. […] Next, BAG 956 efficacy was validated for long-term treatment on α-syn PFF mouse model by comprehensive behavioral and biochemical assays. Behavioral analysis was performed to evaluate the behavioral defect elicited by intrastriatal α-syn PFF injection and any restoration of behavioral dysfunction by oral administration of BAG 956 for 6 months at a low (2 mg/kg) or high (10 mg/kg) concentration after one-month recovery from α-syn PFF injection. PBS injected mice were treated vehicle or BAG956^high (10 mg/kg), whereas α-syn PFF injected mice were orally administered with vehicle, BAG 956^low (2 mg/kg), or BAG956^high (10 mg/kg) (FIG. 13A). […] The open field test (OFT) and elevated plus maze (EPM) were performed to evaluate locomotion, exploration, and anxiety behaviors. […] Next, hippocampal- or amygdala-dependent learning and memory based contextual or cued fear conditioning tests were performed. […] To examine whether the oral administration of BAG 956 could rescue the loss of DA neurons induced by intrastriatal α-syn PFF injection, the number of TH-positive neurons in the substantia nigra pars compacta (SNpc) was measured via an unbiased stereological counting analysis.

opto-α-syn SH-SY5Y cells = assay: OASIS-based high-content imaging assay of light-induced α-syn aggregation (5G4 staining, Aggregates Induction Score); type: cell-based, human
Description: The opto-α-syn expressing SH-SY5Y cells were seeded in 96-well black flat bottom imaging microplates (Falcon) at 30,000 cells per well in 100 μL of complete media using E1-ClipTip electronic multichannel pipette (Thermo Fisher Scientific) and incubated in 37° C. and 5% CO2 humidified incubator. After 18 h of incubation, 10 μL of 10 μM compounds (column 2 to 10) or 1% DMSO (column 1 and 12) were added (final concentration of DMSO is 0.1%). In order to induce aggregations, the plates were illuminated with blue light (26 μW/mm^2) on customized blue light illumination 96-well plates for 2 h. Afterward, cells were fixed in 4% paraformaldehyde (PFA) for 15 min and stained with the aggregated-α-syn antibody (5G4) after permeabilization with 0.1% Triton X-100/0.5% BSA/PBS solution. […] To analyze images, the automated aggregation quantification algorithm and cell counting algorithm in the form of macro are developed using ImageJ software. Briefly, the algorithm includes the inversion, subtracting background, threshold selection, analyzing particles with ranged size and circularity. The Aggregates Induction Score (AIS) is calculated using, the following equation: […]
where N^agg is the number of aggregates, ^Ntotal is the number of total cells. The AIS in each well is normalized by the AIS in positive control which is set as 1.0. […] The hit selection strategy was based on calculated AIS; hits were defined as AIS<0.5. […] Two independent experiments were performed, and total 10 images per well are analyzed to calculate AIS.
As illustrated in FIGS. 8A-8E, high-content imaging screening with the optogenetic α-syn aggregation system was performed, following the schematic representation of the process of high-content imaging (HCI) screening with optogenetics-assisted method of alpha-synuclein aggregation induction system (OASIS) (FIG. 8A). SH-SY5Y cells expressing opto-α-syn were in dark or exposed to blue light (26 μW/mm^2 at 470 nm, 1 Hz, 1 s) for 1.5 h under 96-well plate culture conditions, and then immunostained with 5G4 antibody. The equation of Aggregates Induction Score (AIS) (FIG. 8B) was used for the calculation of Z′-factor for HCI screening with OASIS (FIG. 8C). […] Arrow represents the degree of separation (Z′-factor) between light-illuminated and darkness controls. […] Detailed information of numbered compounds was described in Table 1. One-way ANOVA followed by Dunnett's post hoc test (n=10 or 20, 5 or 10 images each from two independent experiments). *P<0.05, **P<0.01, ***P<0.001, ****P<0.0001.
As illustrated in FIGS. 9A-9B, high-content imaging screening with the optogenetic α-syn aggregation system was performed. The measurement of 5G4^+ aggregates in opto-mock or opto-α-syn SH-SY5Y neuronal cells was assessed. Cells were in dark or exposed to blue light (26 μW/mm^2 at 470 nm, 1 Hz, 1 s) for 1.5 h, and then immunostained with 5G4 antibody. […] Images were converted to grayscale, and a threshold was adjusted to exclude the background based on the size of particles. Once the value of threshold was determined, all the images were applied with the fixed threshold, and then the number of aggregates was measured (FIG. 9A). Number of DAPI from the original images were counted (FIG. 9B). Representative images of opto-α-syn SH-SY5Y neuronal cells treated with 19 compounds under 24-well plate culture conditions were imaged. SH-SY5Y cells expressing opto-α-syn were in dark or exposed to blue light (34 μW/mm^2 at 470 nm, 1 Hz, 0.5 s) for 1.5 h, and then immunostained with 5G4 antibody.

[3] = tested on: blue light-illuminated opto-α-syn-mDA neurons; assay: Autophagy and aggregate clearance in blue light-illuminated opto-α-syn-mDA neurons; type: cell-based, human
Description: (§2) Because autophagy can be activated by the inhibition of PI 3-kinase (PI3K) or the PDK1 pathway, it was tested whether treatment with BAG 956 can induce the autophagic flux to decrease α-syn aggregates in opto-α-syn mDA neurons and MOs.

[4] = tested on: α-syn PFF-treated opto-α-syn-mDA neurons; assay: Autophagy markers (western blot) in α-syn PFF-treated mDA neurons; type: cell-based, human; settings: compared with control or CDC 021 treatment
Description: as §2

[5] = tested on: PI3K-PDK1/AKT/mTOR signaling pathway; assay: PI3K/PDK1 downstream target phosphorylation in α-syn PFF-treated mouse primary neurons; type: cell-based
Text: as §1

[6] = oral, 6 months, both 2 mg/kg and 10 mg/kg
[7] = blue light-illuminated opto-α-syn-mDA neurons
[8] = mDA neurons exposed to blue light

Cc1nc2cnc3ccc(C#Cc4cccnc4)cc3c2n1-c1ccc(C(C)(C)C#N)cc1 [BAG 956]
Phosphorylation of PDK1 downstream targets PI3K, AKT, S6K, and mTOR [1]: significantly reduced | all three forms of p-Tau (AT8, AT180, Tau-217) [2]: significantly downregulated | pathologic pSer129-α-syn immunoreactivity in TH-positive neurons of the SN (IHC) (α-syn PFF injected mice; long-term oral, 10 mg/kg): significantly rescued | number of TH- and Nissl-positive stained DA neurons in SNpc (stereological counting) (α-syn PFF injected mice; oral, 10 mg/kg): recovered | protein levels of TH in ventral midbrain and striatum (α-syn PFF injected mice; oral, 10 mg/kg): rescued | striatal TH-positive fiber density (IHC) (α-syn PFF injected mice; oral, 10 mg/kg): rescued | endpoint body mass (α-syn PFF injected mice; oral, 6 months, 2 mg/kg or 10 mg/kg, all groups): No endpoint body mass differences | time spent, number of entries in the far zone of the open arm of the EPM (α-syn PFF injected mice; oral, 6 months, 10 mg/kg): significantly restored | time spent, number of entries, travelled distance in the center zone of the OFT (α-syn PFF injected mice; oral, 6 months, 10 mg/kg): significantly restored | contextual or cued fear conditioning: total freezing time and freezing episode (α-syn PFF injected mice; [6]): recovered | fore- and hind-limb grip strength (α-syn PFF injected mice; [6]): dramatically recovered | latency to fall from the rotarod test (α-syn PFF injected mice; [6]): dramatically recovered | levels of pS129-α-syn in the TX-insoluble fraction of ventral midbrain (WB) (α-syn PFF injected mice; oral, both 2 mg/kg and 10 mg/kg): significantly reduced | AIS compared to blue light-illuminated DMSO control (opto-α-syn SH-SY5Y cells; two independent experiments, 24-well culture conditions, blue light stimulation): significant decrease | AIS, aggregates induction score (opto-α-syn SH-SY5Y cells; validation of 19 hits, 24-well plates, blue light, AIS normalized to positive control (blue light, DMSO) set as 1.0): 0.34 | LC-311 induction compared with BYL719 (alpelisib) or BAY 80-6946 (copanlisib) [3, 7]: more potent | level of LC-311 [3, 7]: increased | LC3+/5G4+ co-localized vesicles [3, 8]: increased number | number of LC3+ puncta [3, 8]: increased number | level of autophagic marker LC-311 [4]: up-regulated | level of autophagy flux protein p62 [4]: down-regulated | Phosphorylation of PDK1 downstream targets PI3K, AKT, S6K, and mTOR [5]: significantly reduced
